No end group written: not given here.

The term solubility denotes how much of the substance goes into solution per volume. The low end stands for a poorly soluble substance, the high end for a readily soluble substance.

Tested on in the first data set: not listed separately
As to the kind of experiment: physchem.
Conditions: not given
For “SGKAFGAMAKKGQED [Ber01, SGKAFGAMAKKGQED]”, the solubility is more than 20 mg/mL.

Tested on in the next data set: not listed separately
As to the kind of experiment: Solubility of peptides.
Conditions: not given
As for FIPMKSSWGA [Ber02], the solubility is more than 20000 µg/mL.
Same read-out and setting: as for KDSDEFIPMKSSWGAIWR [Ber02B], the figure is more than 20000 µg/mL.
The substance KFIPTLVAAVKQAYAAKQ [Bio03A] registered a solubility of more than 20000 µg/mL.
The same measure, in the same setting: as for KKPEVKYAVFEAALTKAIT [Rye09B2], the figure is 10000 µg/mL; as for KPEVKYAVFEAALTKAIT [Rye09B1], 10000 µg/mL.
The same measure, in the same setting: as for KSSWGAIWRIDPKKPLK [Ber02C], the figure is more than 20000 µg/mL; as for KYDAYVATLTEALR [Bio02A], more than 20000 µg/mL; as for LKKAVTAMSEAEK [Bio04A], more than 20000 µg/mL.
Same read-out and setting: as for NAGFKAAVAAAANAPPK [Rye05C], the figure is 10000 µg/mL; as for PEVKYAVFEAALTKAIT [Rye09B], 5000 µg/mL.
In turn, WGAIWRIDTPDKL [Tim04A] came in with a solubility of 2000 µg/mL.

A further data set relates to peripheral blood mononuclear cells (PBMCs) from grass allergic individuals. The data set is described as follows: In vitro T cell cytokine release assay (IFN-γ, IL-10, IL-13) in PBMC cultures. The class given is cell-based, human. The note with it: single peptide; group of 28 subjects.
“Bio04: Group 5 peptide of Table 2, sequence only in drawing (TALKKAVTAMSEAEKEA)”: the “≧9/28 +ve for one or more cytokine?” value is recorded as “Yes”.
Same read-out and setting: under “Bio05: Group 5 peptide of Table 2, sequence only in drawing (NDKFTVFESAFNKALNE)” stands “Yes”.

The same data set, now with this note: single peptide; number of 28 grass allergic subjects positive (reading > four times control well).
“Bio04: Group 5 peptide of Table 2, sequence only in drawing (TALKKAVTAMSEAEKEA)”: the “IFN-γ +ve/28” value is 12 +ve/28, the “IL-10 +ve/28” value was 8 +ve/28 and the “IL-13 +ve/28” value is 5 +ve/28.
For “Bio05: Group 5 peptide of Table 2, sequence only in drawing (NDKFTVFESAFNKALNE)”, in that order: 11 +ve/28, 1 +ve/28 and 5 +ve/28.

(Values after US8753644B2, “Grass peptides for vaccine” (Circassia Limited, priority 2009, dated 2014).)
